From patent publication US7445765B2, “Radiopharmaceutical for diagnostic imaging containing a technetium-99m nitride heterocomplex” (Nihon Medi-Physics Co., Ltd., priority 2000, dated 2008)

How the values were obtained:
[1] = Biodistribution of the 99mTc(N) heterocomplexes in rats (organ uptake, heart accumulation, heart/lung and heart/liver ratios); assay type: in vivo, female Sprague-Dawley rats
In short: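 Female Sprague-Dawley rats (200–250 g, n=3), ketamine/xylazine anaesthesia, got 300–370 kBq of each purified heterocomplex in pH 7.4 phosphate buffer (10% ethanol) via the jugular vein. They were killed at several post-injection times. Heart blood and washed, weighed organs were gamma-counted, taking whole blood as 6.5% of body weight.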

[2] = Measurement of Log k′ (partition ratio) by HPLC, PNP3 heterocomplexes; assay type: physicochemical; settings: HPLC C18, methanol/phosphate buffer (0.02M, pH 7.4), 1.0 mL/min; extrapolated to 0% organic solvent
Experimental: For the various ^99mTc(N) heterocomplexes synthesized using PNP3 as a bisphosphinoamine compound in Example 1, Log k′ values were determined at various compositions of a mobile phase for HPLC. As the mobile phase, mixtures of methanol and phosphate buffer (0.02M, pH=7.4) were used at a flow rate of 1.0 mL/min. For each sample, the retention time was measured at a minimum of three different methanol concentrations in the mobile phase. The Log k′ values at 0% organic solvent (Log k′0) were extrapolated from the linear part of the curve Log k′=a+bC, where C is the methanol concentration, and Log k′ is Log (tR-to)/to wherein tR is HPLC retension time (min). The column void time (t0) was regarded as being equal to the elution time of pertechnetic acid.

[3] = Stability: ligand exchange reaction with cysteine or glutathione; assay type: physicochemical; settings: phosphate buffer pH 7.4, 37° C., up to 2 hours, TLC
Experimental: The stability of the ^99mTc(N) heterocomplexes obtained using PNP3 as a bisphosphinoamine compound in Example 1 was confirmed by ligand exchange reaction with cysteine or glutathione.
250.0 μL of phosphate buffer solution (0.20 M, pH=7.4), 100 μL of water and 100 μL of each of the ^99mTc(N) heterocomplexes purified were mixed with 50 μL of each of cysteine solutions having different concentrations of 10 mM and 1.0 mM, and the resulting mixture was placed in a polypropylene test tube and incubated in a thermostat at 37° C. A blank solution was obtained by mixing an equal volume of water without addition of cysteine. Aliquots of the resulting solutions were withdrawn at 15 min, 30 min, 60 min and 2 hours after the start of the incubation, and analyzed by TLC. The same experiment as above was carried out except for using glutathione in place of cysteine. All the ^99mTc(N) heterocomplex samples were found stable against transchelation by cystein or glutathione.

CCOCCN(CCOCC)C1=[S][99Tc+]2(#[N])([S]1)[P](CCCOC)(CCCOC)CCN(CCOC)CC[P]2(CCCOC)CCCOC [[^99mTc(N) (PNP3) (DBODC)]^+]
Biodistribution in rats: Adrenal glands ([1]; 0 min post injection): 2.68 ± 0.44 % ID/g
Biodistribution in rats: Blood ([1]; 0 min post injection): 0.55 ± 0.32 % ID/g
Biodistribution in rats: Brain ([1]; 0 min post injection): 0.23 ± 0.04 % ID/g
Biodistribution in rats: Heart ([1]; 0 min post injection): 3.57 ± 0.14 % ID/g
Biodistribution in rats: Intestine ([1]; 0 min post injection): 2.43 ± 0.49 % ID/g
Biodistribution in rats: Kidneys ([1]; 0 min post injection): 10.40 ± 2.16 % ID/g
Biodistribution in rats: Liver ([1]; 0 min post injection): 1.46 ± 0.05 % ID/g
Biodistribution in rats: Lungs ([1]; 0 min post injection): 1.54 ± 0.03 % ID/g
Biodistribution in rats: Muscle ([1]; 0 min post injection): 0.23 ± 0.04 % ID/g
Biodistribution in rats: Spleen ([1]; 0 min post injection): 1.84 ± 0.49 % ID/g
Biodistribution in rats: Submaxillary glands ([1]; 0 min post injection): 1.25 ± 0.47 % ID/g
Biodistribution in rats: Adrenal glands ([1]; 2 min post injection): 2.87 ± 1.00 % ID/g
Biodistribution in rats: Blood ([1]; 2 min post injection): 0.11 ± 0.01 % ID/g
Biodistribution in rats: Brain ([1]; 2 min post injection): 0.03 ± 0.00 % ID/g
Biodistribution in rats: Heart ([1]; 2 min post injection): 3.42 ± 0.19 % ID/g
Biodistribution in rats: Intestine ([1]; 2 min post injection): 7.42 ± 1.03 % ID/g
Biodistribution in rats: Kidneys ([1]; 2 min post injection): 11.57 ± 2.37 % ID/g
Biodistribution in rats: Liver ([1]; 2 min post injection): 1.72 ± 0.26 % ID/g
Biodistribution in rats: Lungs ([1]; 2 min post injection): 1.01 ± 0.49 % ID/g
Biodistribution in rats: Muscle ([1]; 2 min post injection): 0.23 ± 0.01 % ID/g
Biodistribution in rats: Spleen ([1]; 2 min post injection): 2.00 ± 0.07 % ID/g
Biodistribution in rats: Submaxillary glands ([1]; 2 min post injection): 1.27 ± 0.05 % ID/g
Biodistribution in rats: Adrenal glands ([1]; 10 min post injection): 2.30 ± 0.73 % ID/g
Biodistribution in rats: Blood ([1]; 10 min post injection): 0.03 ± 0.00 % ID/g
Biodistribution in rats: Brain ([1]; 10 min post injection): 0.02 ± 0.00 % ID/g
Biodistribution in rats: Heart ([1]; 10 min post injection): 3.65 ± 0.56 % ID/g
Biodistribution in rats: Intestine ([1]; 10 min post injection): 12.11 ± 2.92 % ID/g
Biodistribution in rats: Kidneys ([1]; 10 min post injection): 6.74 ± 0.63 % ID/g
Biodistribution in rats: Liver ([1]; 10 min post injection): 1.43 ± 0.47 % ID/g
Biodistribution in rats: Lungs ([1]; 10 min post injection): 0.77 ± 0.10 % ID/g
Biodistribution in rats: Muscle ([1]; 10 min post injection): 0.23 ± 0.07 % ID/g
Biodistribution in rats: Spleen ([1]; 10 min post injection): 1.28 ± 0.12 % ID/g
Biodistribution in rats: Submaxillary glands ([1]; 10 min post injection): 1.42 ± 0.24 % ID/g
Biodistribution in rats: Adrenal glands ([1]; 20 min post injection): 2.69 ± 0.37 % ID/g
Biodistribution in rats: Blood ([1]; 20 min post injection): 0.02 ± 0.01 % ID/g
Biodistribution in rats: Brain ([1]; 20 min post injection): 0.02 ± 0.01 % ID/g
Biodistribution in rats: Heart ([1]; 20 min post injection): 3.32 ± 0.18 % ID/g
Biodistribution in rats: Intestine ([1]; 20 min post injection): 13.03 ± 3.19 % ID/g
Biodistribution in rats: Kidneys ([1]; 20 min post injection): 6.12 ± 0.11 % ID/g
Biodistribution in rats: Liver ([1]; 20 min post injection): 0.87 ± 0.52 % ID/g
Biodistribution in rats: Lungs ([1]; 20 min post injection): 0.84 ± 0.06 % ID/g
Biodistribution in rats: Muscle ([1]; 20 min post injection): 0.13 ± 0.02 % ID/g
Biodistribution in rats: Spleen ([1]; 20 min post injection): 0.92 ± 0.10 % ID/g
Biodistribution in rats: Submaxillary glands ([1]; 20 min post injection): 1.32 ± 0.21 % ID/g
Biodistribution in rats: Adrenal glands ([1]; 30 min post injection): 2.94 ± 0.18 % ID/g
Biodistribution in rats: Blood ([1]; 30 min post injection): 0.02 ± 0.00 % ID/g
Biodistribution in rats: Brain ([1]; 30 min post injection): 0.02 ± 0.02 % ID/g
Biodistribution in rats: Heart ([1]; 30 min post injection): 3.27 ± 0.36 % ID/g
Biodistribution in rats: Intestine ([1]; 30 min post injection): 13.41 ± 4.62 % ID/g
Biodistribution in rats: Kidneys ([1]; 30 min post injection): 5.67 ± 0.39 % ID/g
Biodistribution in rats: Liver ([1]; 30 min post injection): 0.42 ± 0.01 % ID/g
Biodistribution in rats: Lungs ([1]; 30 min post injection): 0.69 ± 0.12 % ID/g
Biodistribution in rats: Muscle ([1]; 30 min post injection): 0.24 ± 0.08 % ID/g
Biodistribution in rats: Spleen ([1]; 30 min post injection): 0.95 ± 0.02 % ID/g
Biodistribution in rats: Submaxillary glands ([1]; 30 min post injection): 1.49 ± 0.22 % ID/g
Biodistribution in rats: Adrenal glands ([1]; 60 min post injection): 2.17 ± 0.35 % ID/g
Biodistribution in rats: Blood ([1]; 60 min post injection): 0.01 ± 0.00 % ID/g
Biodistribution in rats: Brain ([1]; 60 min post injection): 0.01 ± 0.00 % ID/g
Biodistribution in rats: Heart ([1]; 60 min post injection): 3.27 ± 0.62 % ID/g
Biodistribution in rats: Intestine ([1]; 60 min post injection): 4.39 ± 2.86 % ID/g
Biodistribution in rats: Kidneys ([1]; 60 min post injection): 4.24 ± 0.53 % ID/g
Biodistribution in rats: Liver ([1]; 60 min post injection): 0.16 ± 0.05 % ID/g
Biodistribution in rats: Lungs ([1]; 60 min post injection): 0.34 ± 0.11 % ID/g
Biodistribution in rats: Muscle ([1]; 60 min post injection): 0.17 ± 0.01 % ID/g
Biodistribution in rats: Spleen ([1]; 60 min post injection): 0.42 ± 0.11 % ID/g
Biodistribution in rats: Submaxillary glands ([1]; 60 min post injection): 1.29 ± 0.28 % ID/g
Biodistribution in rats: Adrenal glands ([1]; 120 min post injection): 2.53 ± 0.27 % ID/g
Biodistribution in rats: Blood ([1]; 120 min post injection): 0.01 ± 0.00 % ID/g
Biodistribution in rats: Brain ([1]; 120 min post injection): 0.01 ± 0.00 % ID/g
Biodistribution in rats: Heart ([1]; 120 min post injection): 3.00 ± 0.42 % ID/g
Biodistribution in rats: Intestine ([1]; 120 min post injection): 7.03 ± 2.61 % ID/g
Biodistribution in rats: Kidneys ([1]; 120 min post injection): 3.48 ± 0.61 % ID/g
Biodistribution in rats: Liver ([1]; 120 min post injection): 0.12 ± 0.03 % ID/g
Biodistribution in rats: Lungs ([1]; 120 min post injection): 0.27 ± 0.05 % ID/g
Biodistribution in rats: Muscle ([1]; 120 min post injection): 0.36 ± 0.15 % ID/g
Biodistribution in rats: Spleen ([1]; 120 min post injection): 0.21 ± 0.03 % ID/g
Biodistribution in rats: Submaxillary glands ([1]; 120 min post injection): 1.59 ± 0.19 % ID/g
Log k′ (partition ratio) [2]: 3.82
Stability [3]: Stable
